Where two headings read alike, the source gives them in different places. Where a SMILES comes first, the peptide text is derived from it. Bridges are numbered along the chain shown (N, C = ends). [ ]: non-standard residue; d: D form. S5 = C=CCCC[C@](C)(N)C(=O)O
Biological target: T1, Beta-Catenin (aa 134-668) (Homo sapiens, UniProt P35222)
T1 construct: Beta-Catenin (aa 134-668, 59 KD)
T1 sequence (P35222 134-668): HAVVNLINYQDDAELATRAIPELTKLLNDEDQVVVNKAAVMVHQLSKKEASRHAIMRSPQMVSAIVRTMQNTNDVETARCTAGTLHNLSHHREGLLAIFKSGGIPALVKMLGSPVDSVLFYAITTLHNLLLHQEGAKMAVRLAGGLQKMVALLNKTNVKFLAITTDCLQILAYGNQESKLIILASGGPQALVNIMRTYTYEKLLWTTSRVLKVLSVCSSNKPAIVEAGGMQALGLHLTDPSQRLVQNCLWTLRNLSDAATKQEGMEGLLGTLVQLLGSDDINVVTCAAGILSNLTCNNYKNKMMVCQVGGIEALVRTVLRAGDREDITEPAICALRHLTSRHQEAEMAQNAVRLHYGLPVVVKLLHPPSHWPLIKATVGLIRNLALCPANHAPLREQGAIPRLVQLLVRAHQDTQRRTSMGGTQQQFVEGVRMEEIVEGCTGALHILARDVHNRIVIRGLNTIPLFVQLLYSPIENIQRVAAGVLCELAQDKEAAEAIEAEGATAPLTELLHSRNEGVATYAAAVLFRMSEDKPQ
Assay: TCF/Beta-Catenin competitive fluorescence polarization assay
Format: binding
Conditions: competition with FAM-labelled linear probe for 6x His-tagged Beta-Catenin, room temperature, three hours
Description: The following experiments are performed at room temperature unless otherwise noted. First, an assay buffer is prepared composed of 25 mM Tris-Hcl pH 7.5, 200 mM Sodium Chloride, and 5 mM CHAPS. Next, 1M DTT is added to assay buffer to a final concentration of 2 mM. […] Forty μl of this protein stock is added to all but six wells of a 96 well plate (which will serve as the free peptide and Blank). Test competitor peptides are diluted from 1 mM DMSO stocks to 2× working stocks in assay buffer. Further dilutions are made in assay buffer-DMSO as to maintain a constant DMSO concentration in all wells. […] As a benchmark, a linear, non-crosslinked peptide competitor is prepared as above but with a working concentration range of 13-0.7 μM. Fifty μl of the competitor 2× stocks are added to the 40 μl of protein solution previously transferred into the assay 96 well plate. Next, a 10× stock of the fluorescent probe is prepared. The probe is identical to the linear benchmark peptide except for the n-terminal conjugation of a FAM flourophore with Beta-Alanine spacer. A 1 mM DMSO stock of the probe is serially diluted to a final concentration of 25 nM (10×) and 10 μl of this stock is added to all wells except for those that will serve as the blank. The assay plate is stored in the dark and the reaction is allowed to run at room temperature for three hours. The reaction is then read on a Biotek Synergy 2 with the following settings: 100 ms delay, 40 measurements per well, with excitation filters of […], and emission filters of […]. Data is then analyzed in Graphpad Prism.

[1] = read-out: Binding Activity: IC50

IC50 [1]	Structure (SMILES)	IC50 (Binding Activity: IC50 (nM))
158 nM	CC[C@H](C)[C@H](NC(=O)[C@H](CC(C)C)NC(=O)[C@H](CCC(=O)O)NC(=O)[C@H](CC(=O)O)NC(=O)[C@H](CC(N)=O)NC(=O)[C@H](C)NC(=O)CNC(=O)[C@H](CC(C)C)NC(C)=O)C(=O)N[C@@H](CO)C(=O)N[C@@H](Cc1ccccc1)C(=O)N[C@@H](CCCCN)C(=O)N[C@@H](CC(=O)O)C(=O)N[C@@H](CCC(=O)O)C(=O)NCC(=O)N[C@@]1(C)CCCC=CCCC[C@@](C)(C(=O)N[C@@H](CO)C(=O)N[C@@H](CO)C(=O)N[C@@H](CC(N)=O)C(=O)N[C@@H](CC(N)=O)C(=O)N[C@@H](CO)C(=O)N[C@@H](CO)C(=O)N[C@@H](C)C(=O)N[C@@H](CCC(=O)O)C(=O)N[C@@H](CCCNC(=N)N)C(=O)N[C@@H](CC(=O)O)C(=O)N[C@@H](CC(C)C)C(=O)N[C@@H](C)C(=O)N[C@@H](CC(=O)O)C(=O)N[C@H](C(=O)N[C@@H](CCCCN)C(=O)N[C@@H](CO)C(=O)N[C@@H](CO)C(=O)N[C@@H](CC(C)C)C(=O)N[C@H](C(N)=O)C(C)C)C(C)C)NC(=O)[C@H](CCC(=O)O)NC(=O)[C@H](CCC(=O)O)NC(=O)[C@H](CCC(N)=O)NC1=O [SP28, Ac-LGANDELISFKDEG$QEE$SSNNSSAERDLADVKSSLV-NH2] (Ac-LGANDELISFKDEG[S5]QEE[S5]SSNNSSAERDLADVKSSLV-NH2; staple 15-19)	
84900 nM	CC(=O)N[C@@H](CO)C(=O)N[C@@H](C)C(=O)N[C@@H](CCC(=O)O)C(=O)N[C@@H](CCCNC(=N)N)C(=O)N[C@@H](CC(=O)O)C(=O)N[C@@H](CC(C)C)C(=O)N[C@@H](C)C(=O)N[C@@H](CC(=O)O)C(=O)N[C@H](C(=O)N[C@@H](CCCCN)C(=O)N[C@@]1(C)CCCC=CCCC[C@@](C)(C(=O)N[C@@H](CCC(=O)O)C(=O)N[C@@H](CO)C(=O)N[C@@H](CCC(=O)O)C(=O)N[C@@H](CCCCN)C(=O)N[C@@H](CCCNC(=N)N)C(N)=O)NC(=O)[C@H](C(C)C)NC(=O)[C@H](CC(C)C)NC(=O)[C@H](CO)NC1=O)C(C)C [SP12, Ac-SAERDLADVK$SLV$ESEKR-NH2] (Ac-SAERDLADVK[S5]SLV[S5]ESEKR-NH2; staple 11-15)	
	CC[C@H](C)[C@H](NC(=O)[C@H](CC(C)C)NC(=O)[C@H](CCC(=O)O)NC(=O)[C@H](CC(=O)O)NC(=O)[C@H](CC(N)=O)NC(=O)[C@H](C)NC(=O)CNC(=O)[C@H](CC(C)C)NC(C)=O)C(=O)N[C@@H](CO)C(=O)N[C@@H](Cc1ccccc1)C(=O)N[C@@H](CCCCN)C(=O)N[C@@]1(C)CCCC=CCCC[C@@](C)(C(=O)N[C@@H](CCC(=O)O)C(=O)N[C@@H](CCC(=O)O)C(=O)N[C@@H](CCCCN)C(=O)N[C@@H](CO)C(=O)N[C@@H](CO)C(=O)N[C@@H](CC(N)=O)C(=O)N[C@@H](CC(N)=O)C(=O)N[C@@H](CO)C(=O)N[C@@H](CO)C(=O)N[C@@H](C)C(=O)N[C@@H](CCC(=O)O)C(=O)N[C@@H](CCCNC(=N)N)C(=O)N[C@@H](CC(=O)O)C(=O)N[C@@H](CC(C)C)C(=O)N[C@@H](C)C(=O)N[C@@H](CC(=O)O)C(=O)N[C@H](C(=O)N[C@@H](CCCCN)C(=O)N[C@@H](CO)C(=O)N[C@@H](CO)C(=O)N[C@@H](CC(C)C)C(=O)N[C@H](C(N)=O)C(C)C)C(C)C)NC(=O)[C@H](CCC(=O)O)NC(=O)CNC(=O)[C@H](CCC(=O)O)NC1=O [SP27] (Ac-LGANDELISFK[S5]EGE[S5]EEKSSNNSSAERDLADVKSSLV-NH2; staple 12-16)	158 nM
